Results taken from patent publication US4404206A, “Substituted iminoacid derivatives, process for preparing them and their use as enzyme inhibitors” (Science Union et Cie, priority 1979, dated 1983).

Tested on: enzyme responsible for the conversion of angiotension I into angiotension II
Test: Inhibition of the angiotensin I pressor response in dogs after intravenous administration (arterial pressure recorded)
Assay type: in vivo
Conditions: dog
Experimental: The compounds of the invention are tested in […] dogs, maintained in forced respiration by an apparatus.
The aorta is catheterized by way of the femoral arteria, and the arterial pressure is registered by an appropriate instrument.
Angiotension I and II are administered to the animals intravenously at the dose of 0.3 γ/Kg. After registering of the dose/activity relation curve, the compounds of the invention are administered also by the intravenous route and modification of the blood pressure is also registered.
The results obtained by the new compounds are summarized in the table hereinafter and are expressed in percentage of inhibition of the enzyme activity. The numbers in the brackets indicate the dose of the active enantiomer contained in the administered doses.

[1] = dose 20 mg/Kg IV, time 15 minutes
[2] = dose 20 mg/Kg IV, time 30 minutes
[3] = dose 20 mg/Kg IV, time 1 h 30 min.
[4] = dose 10 (2,5) mg/Kg IV, time 15 minutes
[5] = dose 10 (2,5) mg/Kg IV, time 30 minutes
[6] = dose 10 (2,5) mg/Kg IV, time 1 h 30 min.
[7] = dose 10 (2,5) mg/Kg IV, time 1 hour
[8] = dose 10 (2,5) mg/Kg IV, time 2 hours
[9] = dose 10 (2,5) mg/Kg IV, time 3 hours

## CC(CC(=O)O)C(=O)N1Cc2ccccc2C[C@H]1C(=O)O (mixture of isomers) [Example 9, 2-[3-carboxy 2-(RS)methylpropionyl] 3-(S) carboxy 1,2,3,4-tetrahydroisoquinoline]
[1]
  Percentage of inhibition (of the enzyme activity): 38%
[2]
  Percentage of inhibition (of the enzyme activity): 35%
[3]
  Percentage of inhibition (of the enzyme activity): 25%
Dose 20 mg/Kg IV, time 1 hour
  Percentage of inhibition (of the enzyme activity): 25%
Dose 20 mg/Kg IV, time 2 hours
  Percentage of inhibition (of the enzyme activity): 48%
Dose 20 mg/Kg IV, time 3 hours
  Percentage of inhibition (of the enzyme activity): 25%

## C[C@@H](CS)C(=O)N1C2CCCCC2C[C@@H]1C(=O)O (mixture of isomers) [Example 5, N-[3-mercapto 2-(RS)methylpropionyl] 2-(RS) carboxy perhydroindole]
Dose 5 (1,25) mg/Kg IV, time 15 minutes
  Percentage of inhibition (of the enzyme activity): 100%
Dose 5 (1,25) mg/Kg IV, time 30 minutes
  Percentage of inhibition (of the enzyme activity): 100%
Dose 5 (1,25) mg/Kg IV, time 1 h 30 min.
  Percentage of inhibition (of the enzyme activity): 90%
Dose 5 (1,25) mg/Kg IV, time 1 hour
  Percentage of inhibition (of the enzyme activity): 100%
Dose 5 (1,25) mg/Kg IV, time 2 hours
  Percentage of inhibition (of the enzyme activity): 71%
Dose 5 (1,25) mg/Kg IV, time 3 hours
  Percentage of inhibition (of the enzyme activity): 54%
[4]
  Percentage of inhibition (of the enzyme activity): 100%
[5]
  Percentage of inhibition (of the enzyme activity): 92%
[6]
  Percentage of inhibition (of the enzyme activity): 92%
[7]
  Percentage of inhibition (of the enzyme activity): 92%
[8]
  Percentage of inhibition (of the enzyme activity): 92%
[9]
  Percentage of inhibition (of the enzyme activity): 86%

## CC(CS)C(=O)N1Cc2ccsc2CC1C(=O)O (racemic) [Example 6]
[1]
  Percentage of inhibition (of the enzyme activity): 47%
[2]
  Percentage of inhibition (of the enzyme activity): 51%
[3]
  Percentage of inhibition (of the enzyme activity): 30%
Dose 20 mg/Kg IV, time 1 hour
  Percentage of inhibition (of the enzyme activity): 37%
Dose 20 mg/Kg IV, time 2 hours
  Percentage of inhibition (of the enzyme activity): 26%
Dose 20 mg/Kg IV, time 3 hours
  Percentage of inhibition (of the enzyme activity): 23%

## C[C@@H](CS)C(=O)N1CC2CCCCC2[C@@H]1C(=O)O (mixture of isomers) [Example 7, N-[3-mercapto 2-(RS)methylpropionyl] 1-(RS) carboxy perhydroisoindole]
[4]
  Percentage of inhibition (of the enzyme activity): 83%
[5]
  Percentage of inhibition (of the enzyme activity): 64%
[6]
  Percentage of inhibition (of the enzyme activity): 48%
[7]
  Percentage of inhibition (of the enzyme activity): 62%
[8]
  Percentage of inhibition (of the enzyme activity): 40%
[9]
  Percentage of inhibition (of the enzyme activity): 26%

## CC(CS)C(=O)N1C(C(=O)O)CCC2CCCCC21 (racemic) [Example 8, 1-[3 mercapto 2-(RS)methylpropionyl] 2-(RS) carboxy perhydroquinoline.]
[4]
  Percentage of inhibition (of the enzyme activity): 72%
[5]
  Percentage of inhibition (of the enzyme activity): 69%
[6]
  Percentage of inhibition (of the enzyme activity): 50%
[7]
  Percentage of inhibition (of the enzyme activity): 64%
[8]
  Percentage of inhibition (of the enzyme activity): 36%
[9]
  Percentage of inhibition (of the enzyme activity): 31%

## CC(CS)C(=O)N1CC2CCCCC2CC1C(=O)O (stereo not drawn) [Example 1, 2-(3-mercapto-2-(RS)-methylpropionyl)-cis-perhydroisoquinoline-3-carboxylicacid]
[1]
  Percentage of inhibition (of the enzyme activity): 100%
[2]
  Percentage of inhibition (of the enzyme activity): 100%
[3]
  Percentage of inhibition (of the enzyme activity): 76%
Dose 20 mg/Kg IV, time 1 hour
  Percentage of inhibition (of the enzyme activity): 90%
Dose 20 mg/Kg IV, time 2 hours
  Percentage of inhibition (of the enzyme activity): 70%
Dose 20 mg/Kg IV, time 3 hours
  Percentage of inhibition (of the enzyme activity): 42%
